Experimental data: patent US9765039B2, “Biaryl derivatives as bromodomain inhibitors” (Zenith Epigenetics Ltd., priority 2012, dated 2017)
Counter-ions that a name gives are not always drawn.

How the values were obtained:
Brd4 bromodomain 1 = target: T1, Brd4 bromodomain 1 (Homo sapiens, UniProt O60885); test: Inhibition of tetra-acetylated histone H4 binding to BET bromodomains (TR-FRET); design: key: Active: Compounds with an IC50 value less than 30 μM were deemed to be active.; Not Active: Compounds with an IC50 value less than 30 μM were deemed to be active; details: first bromodomain of Brd4, tetra-acetylated histone H4 peptide
T1 construct: made in house; host or cells: E. coli BL21(DE3)
Method: Proteins were cloned and overexpressed with a N-terminal 6×His tag, then purified by nickel affinity followed by size exclusion chromatography. Briefly, E. coli BL21(DE3) cells were transformed with a recombinant expression vector encoding N-terminally Nickel affinity tagged bromodomains from Brd2, Brd3, Brd4. Cell cultures were incubated at 37° C. with shaking to the appropriate density and induced overnight with IPTG. The supernatant of lysed cells was loaded onto Ni-IDA column for purification. Eluted protein was pooled, concentrated and further purified by size exclusion chromatography. Fractions representing monomeric protein were pooled, concentrated, aliquoted, and frozen at −80° C. for use in subsequent experiments.
Binding of tetra-acetylated histone H4 and BET bromodomains was confirmed by a Time Resolved Fluorescence Resonance Energy Transfer (TR-FRET) method. N-terminally His-tagged bromodomains (200 nM) and biotinylated tetra-acetylated histone H4 peptide (25-50 nM, Millipore) were incubated in the presence of Europium Cryptate-labeled streptavidin (Cisbio Cat. #610SAKLB) and XL665-labeled monoclonal anti-His antibody (Cisbio Cat. #61HISXLB) in a white 96 well microtiter plate (Greiner). For inhibition assays, serially diluted test compound was added to these reactions in a 0.2% final concentration of DMSO. Final buffer concentrations were 30 mM HEPES pH 7.4, 30 mM NaCl, 0.3 mM CHAPS, 20 mM phosphate pH 7.0, 320 mM KF, 0.08% BSA). After 2 hours incubation at room temperature, the fluorescence by FRET was measured at 665 and 620 nm by a SynergyH4 plate reader (Biotek). Illustrative results with the first bromodomain of Brd4 are shown below (Table 1). The binding inhibitory activity was shown by a decrease in 665 nm fluorescence relative to 620 nm. IC50 values were determined from a dose response curve.

hIL-6 mRNA = test: Inhibition of hIL-6 mRNA transcription in LPS-stimulated U937 macrophages; type: cell-based, human; design: key: Active: Compounds with an IC50 value less than 30 μM are deemed to be active; details: U937 differentiated into macrophages, 1 h pretreatment, lipopolysaccharide 3 h
Method: In this example, hIL-6 mRNA in tissue culture cells was quantitated to measure the transcriptional inhibition of hIL-6 when treated with a compound of the present disclosure.
A human leukemic monocyte lymphoma cell line (U937) was plated (3.2×10^4 cells per well) in a 96-well plate in 100 μL RPMI-1640 containing 10% FBS and penicillin/streptomycin, and differentiated into macrophages for 3 days in 60 ng/mL PMA ([…]) at 37° C. in 5% CO2 prior to the addition of the compound of interest. The cells were pretreated for 1 h with the test compound prior to stimulation with […] lipopolysaccharide from Escherichia coli. The cells were incubated at 37° C. for 3 h before the cells were harvested. At time of harvest, the spent media was removed from the cells and the cells were rinsed in 200 μL PBS. Cell lysis solution (70 μL) was added the cells in each well and incubated for 5-10 min at room temperature, to allow for complete cell lysis and detachment. mRNA was then prepared using the “mRNA Catcher PLUS plate” (Invitrogen), according to the protocol supplied. After the last wash, as much wash buffer as possible was aspirated without allowing the wells to dry. Elution buffer (E3, 70 μL) was then added to each well. mRNA was then eluted by incubating the mRNA Catcher PLUS plate with Elution Buffer for 5 min at 68° C. and then immediately placing the plate on ice.
The eluted mRNA isolated was then used in a one-step quantitative real-time PCR reaction, using components of the Ultra Sense Kit together with Applied Biosystems primer-probe mixes. Real-time PCR data was analyzed, normalizing the Ct values for hIL-6 to an internal control, prior to determining the fold induction of each unknown sample, relative to the control.

Human AML MV-4-11 cells = test: Inhibition of cell proliferation in cancer cell lines (CellTiter Aqueous One); type: cell-based; design: key: Active: Compounds with an IC50 value less than 30 μM were deemed to be active.; Not Active: Compounds with an IC50 value less than 30 μM were deemed to be active; details: 72 hours
Method: MV4-11 cells: 96-well plates were seeded with 5×10^4 cells per well of exponentially growing human AML MV-4-11 (CRL-9591) cells and immediately treated with two-fold dilutions of test compounds, ranging from 30 μM to 0.2 μM. Triplicate wells were used for each concentration, as well as a media only and three DMSO control wells. The cells and compounds were incubated at 37° C., 5% CO2 for 72 hours before adding 20 μL of the CellTiter Aqueous One Solution (Promega) to each well and incubating at 37° C., 5% CO2 for an additional 3-4 hours. The absorbance was taken at 490 nm in a spectrophotometer and the percentage of proliferation relative to DMSO-treated cells was calculated after correction from the blank well. IC50 were calculated using the GraphPad Prism software.

c-myc = test: Inhibition of c-myc expression in cancer cell lines (mRNA, real-time PCR); type: cell-based; design: key: Active: Compounds with an IC50 value less than 30 μM were deemed to be active; details: Human AML MV4-11 cells, 3 hours
Method: MV4-11 cells (2.5×10^4 cells) were plated in 96 well U-bottom plates with test compound or DMSO (0.1%), and incubated for 3 hours at 37° C. Cells were then harvested by centrifugation, lysed, and mRNA was isolated using the mRNA catcher plus kit (Invitrogen). Reverse transcription of the mRNA and duplex amplification of the c-myc and cyclophilin cDNAs was performed using the RNA Ultrasense kit (Invitrogen) and a ViiA7 real-time PCR machine (Applied Biosystems). IC50 values were determined from a dose response curve.

Row | Compound | melting point [°C] | FRET activity (IC50 < 30 μM) (Brd4 bromodomain 1) | IL-6 activity (IC50 < 30 μM) (hIL-6 mRNA) | cell proliferation activity (IC50 < 30 μM) (Human AML MV-4-11 cells) | c-myc activity (IC50 < 30 μM) (c-myc)
1 | COc1cc(OC)c2c(=O)[nH]c(-c3ccc(OCCO)c(-c4ccc(S(C)(=O)=O)cc4)n3)nc2c1 (as salt: methanesulfonate) [Example 25, 2-(5-(2-Hydroxyethoxy)-6-(4-(methylsulfonyl)phenyl)pyridin-2-yl)-5,7-dimethoxyquinazolin-4(3H)-one methanesulfonate] | 134 to 136 |  |  |  | 
2 | COc1cc(OC)c2c(=O)[nH]c(-c3ccc(OCCO)c(-c4cccc(S(C)(=O)=O)c4)n3)nc2c1 (as salt: methanesulfonate) [Example 36, 2-(5-(2-Hydroxyethoxy)-6-(3-(methylsulfonyl)phenyl)pyridin-2-yl)-5,7-dimethoxyquinazolin-4(3H)-one methanesulfonate] | 218 to 220 |  |  |  | 
3 | COc1cc(OC)c2c(=O)[nH]c(-c3ccc(OCCO)c(-c4ccccc4)n3)nc2c1 [Example 21, 2-(5-(2-Hydroxyethoxy)-6-phenylpyridin-2-yl)-5,7-dimethoxyquinazolin-4(3H)-one] | 240 to 242 | Active | Active |  | 
4 | COc1cc(OC)c2c(=O)[nH]c(-c3ccc(OCCNC(C)C)c(-c4ccccc4)n3)nc2c1 [Example 22, 2-(5-(2-(Isopropylamino)ethoxy)-6-phenylpyridin-2-yl)-5,7-dimethoxyquinazolin-4(3H)-one] | 179 to 180 | Active | Active | Active | Active
5 | COc1cc(OC)c2c(=O)[nH]c(-c3ccc(OCCO)c(-c4ccccc4S(C)(=O)=O)n3)nc2c1 [Example 30, 2-(5-(2-Hydroxyethoxy)-6-(2-(methylsulfonyl)phenyl)pyridin-2-yl)-5,7-dimethoxyquinazolin-4(3H)-one] | 92 to 93 | Active |  |  | 
6 | COc1cc(OC)c2c(=O)[nH]c(-c3ccc(OCCN4CCOCC4)c(-c4ccc(S(C)(=O)=O)cc4)n3)nc2c1.Cl [Example 31, 5,7-Dimethoxy-2-(6-(4-(methylsulfonyl)phenyl)-5-(2-morpholinoethoxy)pyridin-2-yl)quinazolin-4(3H)-one hydrochloride] | 226 to 228 | Active | Active | Not Active | Active
7 | COc1cc(OC)c2c(=O)[nH]c(-c3ccc(OCCNC(C)C)c(-c4ccccc4S(C)(=O)=O)n3)nc2c1 [Example 32, 2-(5-(2-(Isopropylamino)ethoxy)-6-(2-(methylsulfonyl)phenyl)pyridin-2-yl)-5,7-dimethoxyquinazolin-4(3H)-one] | 178 to 180 | Active | Not Active |  | 
8 | COc1cc(OC)c2c(=O)[nH]c(-c3ccc(OCCNC(C)C)c(-c4cccc(S(C)(=O)=O)c4)n3)nc2c1 [Example 33, 2-(5-(2-(Isopropylamino)ethoxy)-6-(3-(methylsulfonyl)phenyl)pyridin-2-yl)-5,7-dimethoxyquinazolin-4(3H)-one] | 222 to 223 | Active | Not Active |  | 
9 | CCS(=O)(=O)c1ccc(-c2nc(-c3nc4cc(OC)cc(OC)c4c(=O)[nH]3)ccc2OCCO)cc1 [Example 34, 2-(6-(4-(Ethylsulfonyl)phenyl)-5-(2-hydroxyethoxy)pyridin-2-yl)-5,7-dimethoxyquinazolin-4(3H)-one] | 282 to 284 | Active | Active | Active | Active
10 | CCS(=O)(=O)c1ccc(-c2nc(-c3nc4cc(OC)cc(OC)c4c(=O)[nH]3)ccc2OCCNC(C)C)cc1 [Example 35, 2-(6-(4-(Ethylsulfonyl)phenyl)-5-(2-(isopropylamino)ethoxy)pyridin-2-yl)-5,7-dimethoxyquinazolin-4(3H)-one] | 195 to 197 | Active | Not Active | Active | Active
11 | COc1cc(OC)c2c(=O)[nH]c(-c3cccc(-c4ccc([S+](C)[O-])cc4)c3)nc2c1 (stereo not drawn) [Example 47, 5,7-Dimethoxy-2-(4′-(methylsulfinyl)-[1,1′-biphenyl]-3-yl)quinazolin-4(3H)-one] | > 300 | Not Active | Not Active |  | 
12 | COc1cc(OC)c2c(=O)[nH]c(-c3cc(-c4ccc([S+](C)[O-])cc4)cs3)nc2c1 (stereo not drawn) [Example 48, 5,7-Dimethoxy-2-(4-(4-(methylsulfinyl)phenyl)thiophen-2-yl)quinazolin-4(3H)-one] | > 300 | Not Active | Active | Not Active | Not Active
13 | C[S+]([O-])c1ccc(-c2nc(-c3nc4ccccc4c(=O)[nH]3)ccc2OCCO)cc1 (stereo not drawn) [Example 61, 2-(5-(2-Hydroxyethoxy)-6-(4-(methylsulfinyl)phenyl)pyridin-2-yl)quinazolin-4(3H)-one] | 261 to 262 | Active |  |  | 
14 | COc1cccc2nc(-c3ccc(OCCO)c(-c4ccc(S(C)(=O)=O)cc4)n3)[nH]c(=O)c12 [Example 62, 2-(5-(2-Hydroxyethoxy)-6-(4-(methylsulfonyl)phenyl)pyridin-2-yl)-5-methoxyquinazolin-4(3H)-one] | > 300 | Active | Active |  | 
15 | CC(C)NCCOc1ccc(-c2nc3ccccc3c(=O)[nH]2)nc1-c1ccc(S(C)(=O)=O)cc1 [Example 68, 2-(5-(2-(Isopropylamino)ethoxy)-6-(4-(methylsulfonyl)phenyl)pyridin-2-yl)quinazolin-4(3H)-one] | 188 to 189 | Active |  |  | 
